Laboratory results from US20250281628A1, “COMPOSITE NANOPARTICULATE MINERALIZED COLLAGEN GLYCOSAMINOGLYCAN MATERIALS WITH TIME RELEASE ANTI-RESORPTIVE FACTORS” (The Regents of the University of California, priority 2021, published 2025).

Experiments:
[1] = test system: canonical BMP receptor signaling pathway; assay: Inhibitor study with DMH1, western blot of hMSCs on scaffolds; type: cell-based, human; settings: 50 μM
Protocol: (§1) Osteogenic differentiation of hMSCs on Col-GAG and MC-GAG: 3×10^5 hMSCs were seeded onto 8 mm discs of CG-GAG and MC-GAG scaffolds in proliferation media. 24 h after seeding, media was switched to osteogenic differentiation media consisting of 10 mM β-glycerophosphate, 50 μg/mL ascorbic acid, and 0.1 μM dexamethasone. For inhibitor studies, scaffolds were treated or untreated with dorsomorphin homologue 1 (DMH1; Sigma-Aldrich) or PD98059 (Cell Signaling Technologies, Beverly, MA) separately, all at a concentration of 50 μM. Fresh DMH1 and PD98059 were added to each media change every 3 days.
(§2) Western blot: Lysates were prepared from scaffolds at 0, 4, 14, and 24 days of culture using SDS sample buffer and equal amounts were subjected to 4-20% SDS-PAGE (Bio-Rad, Hercules, CA). Western blot analysis was carried out with antibodies against OPG, RANKL, phosphorylated small mothers against decapentaplegic 1/5 (p-Smad1/5), total Smad5, phosphorylated extracellular regulated kinase 1/2 (p-ERK1/2), total ERK1/2, and […] followed by 1:4000 dilutions of HRP-conjugated IgG antibodies (Bio-Rad, Hercules, CA) and an enhanced chemiluminescent substrate (Thermo Scientific, Rockford, IL). For detection of p-Smad1/5 and total Smad5, 10 μg of lysate was loaded per lane. For detection of OPG, RANKL, p-ERK1/2, total ERK1/2, and β-actin, 20 μg of lysate was loaded per lane. All antibodies were obtained from Cell Signaling Technologies (Beverly, MA) with the exception of RANKL, OPG, and β-actin antibodies which were obtained from Santa Cruz Biotechnology (Santa Cruz, CA). Imaging analysis was carried out using ImageJ (NIH, Bethesda, MD).
(§3) To characterize the mechanism responsible for differential OPG expression osteogenically differentiated hMSCs cultured on MC-GAG versus Col-GAG, DMH1, and PD98059 small molecule inhibitors were utilized for the canonical BMP receptor and MEK1/ERK1/2 signaling pathways, respectively (FIG. 11). […] Due to the massive upregulation of Smad1/5 phosphorylation in MC-GAG, a smaller inhibition was noted compared to Col-GAG. […] In contrast, OPG expression was increased in the presence of DMH1 on both Col-GAG and MC-GAG, particularly at the day 14 timepoint.

[2] = test system: MEK1/ERK1/2 signaling pathway; assay: Inhibitor study with PD98059, western blot of hMSCs on scaffolds; type: cell-based, human; settings: 50 μM
Protocol: as §1, §2, §3

| Compound | phosphorylated ERK1/2 ([1]; MC-GAG at day 4) | OPG expression ([1]; both Col-GAG and MC-GAG, particularly day 14) | total Smad5, total ERK1/2, RANKL, or actin ([1]; hMSCs on Col-GAG and MC-GAG) | phosphorylation of Smad1/5 ([1]; hMSCs on either material) | phosphorylated Smad1/5, total Smad5, total ERK1/2, or actin [2] | phosphorylated ERK1/2 ([2]; all timepoints, either material) | OPG protein expression ([2]; hMSCs on Col-GAG) | RANKL expression ([2]; hMSCs on Col-GAG) | OPG protein expression ([2]; hMSCs on MC-GAG, all timepoints) | RANKL expression ([2]; hMSCs on MC-GAG, particularly day 24) |
| --- | --- | --- | --- | --- | --- | --- | --- | --- | --- | --- |
| CC(C)Oc1ccc(-c2cnc3c(-c4ccnc5ccccc45)cnn3c2)cc1 [DMH1, dorsomorphin homologue 1] | small elevation | increased | No differences | partially decreased at all timepoints | – | – | – | – | – | – |
| COc1cccc(-c2cc(=O)c3ccccc3o2)c1N [PD98059] | – | – | – | – | no effects | decreased | no differences were detected | no differences were detected | decreased | downregulated |
